Results from US20260048046A1, “METHOD FOR IMPROVING GROWTH PERFORMANCE IN FEEDLOT CATTLE” (Elanco US Inc., priority 2022, published 2026).

Experiments:
beef cattle = assay: 91-d study: Warner-Bratzler shear force of striploin steaks; type: in vivo; settings: 91-d treatment, LS mean, shear force after 14-d aging
Protocol: Following chill, striploins (LM) were collected from three randomly selected cattle/CPE and shipped to the University of Illinois Meat Science Laboratory for Warner-Bratzler shear force (WBSF) determination. At the laboratory, the anterior end of the striploin was fabricated into 2.54-cm steaks, vacuum packaged, and aged at 4° C. until 14-d postmortem. Steaks were frozen after aging, and then thawed at 4° C. for 24 h before being cooked on a Farberware Open Hearth electric broiler (Farberware, Bronx, NY). Copper-constantan Type-T thermocouples (Omega Engineering. Stamford, CT) connected to a digital scanning thermometer (Barnant Co., Barington, IL) were used to monitor internal temperature, and each steak was flipped a single time when the internal temperature reached 35° C. The steaks were removed from the grill when a temperature of 70° C. was achieved and cooled to ˜25° C. before six cores (1.25 cm diameter) were removed parallel to muscle fiber orientation. Cores were sheared perpendicular to the muscle fibers using a Texture Analyzer TA.HD Plus (Stable Microsystems, Godalming. UK) equipped with a WBSF attachment, and the peak WBSF measurement was averaged over all 6 cores to obtain a single shear force measurement (kg of force) for each steak.

beef feedlot cattle = assay: 56-d study: animal mobility (NAMI mobility score); type: in vivo; settings: for Percentage of steers, mobility score 1, Lairage / Percentage of steers, mobility score 2, Lairage / Percentage of steers, mobility score >2, Lairage / Percentage of steers, mobility score 1, Pen / Percentage of steers, mobility score 2, Pen / Percentage of steers, mobility score >2, Pen / Percentage of steers, mobility score 1, Loadout / Percentage of steers, mobility score 2, Loadout / Percentage of steers, mobility score >2, Loadout: final 56 d; for Percentage of steers, mobility score 1, Lairage / Percentage of steers, mobility score 2, Lairage / Percentage of steers, mobility score >2, Lairage: antemortem inspection at the packing plant; for Percentage of steers, mobility score 1, Pen / Percentage of steers, mobility score 2, Pen / Percentage of steers, mobility score >2, Pen: approx. 1 wk prior to harvest in home pens; for Percentage of steers, mobility score 1, Loadout / Percentage of steers, mobility score 2, Loadout / Percentage of steers, mobility score >2, Loadout: immediately prior to loading into trucks
Protocol: Animal mobility assessments were conducted three times prior to harvest at: 1) approximately 1 week prior to harvest while cattle were in their home pens; 2) after collection of final pen weights and immediately prior to loading into trucks for slaughter; and 3) at antemortem inspection during lairage at the packing plant. The mobility scorer used the North American Meat Institute's (NAMI) mobility scoring system (Edwards-Callaway et al., 2017) to evaluate cattle mobility.
The label claim variable of cumulative NH3 gas emissions over the treatment period normalized by final BW (with d −59 BW as a covariate) for the period and HCW (g of gas kg^−1 of BW or g of gas kg^−1 HCW) was determined by utilizing NH3 gas emissions equations developed from the LUB clinical effectiveness study (FDA-FOI, 2018) and validated using animals of similar BW as described by Brown et al. (2019). The pen was the experimental unit for each outcome. Differences were deemed significant using a two-sided test at Ptrt≤0.05, however, a less stringent significance threshold of Ptrt≤0.10 was used for abnormal health observations. Fixed effect of treatment and random effects of time replicate and block within time replicate were included in the model. Discrete variables were analyzed using a generalized linear mixed model, Proc GLIMMIX SAS version 9.4 unless there were convergence problems due to sparseness of data. A binomial distribution was assumed and a logit link used in the analysis. Contrasts were constructed between the CON group and each non-CON dosage group, and differences were deemed significant at Pdose≤0.05. If convergence problems arose due to sparseness of data, Fisher's exact test (binomial data; Proc FREQ in SAS) or Wilcoxon's rank-sum test (categorical data; Proc NARIWAY in SAS) was used to evaluate differences between the CON group and the non-CON dosage groups. In all cases except for health observations, differences were deemed significant at Ptrt≤0.05 for these primary discrete variables. Additionally, non-CON dosage groups were compared to one another using a significance level of Pdose≤0.05. A less stringent Ptrt≤0.10 level of significance was used for health observations.

## CC(C)(Cc1ccc(Oc2ncccc2C#N)cc1)NC[C@H](O)COc1ccccc1-c1cccs1 [LUB, 2-{4-[2-({(2S)-2-Hydroxy-3-[2-(2-thienyl)phenoxy]propyl}amino)-2-methylpropyl]phenoxy}nicotinonitrile]
Beef cattle; LUB 1.38 mg·kg^−1 DM
  14-dWBSP: 2.79 kg
Beef cattle; LUB 5.5 mg·kg^−1 DM
  14-dWBSP: 2.92 kg
Beef cattle; LUB 22.0 mg·kg^−1 DM
  14-dWBSP: 2.75 kg
Beef feedlot cattle; 1.5 mg·kg^−1 DM
  Percentage of steers, mobility score 1, Lairage: 80.2%
  Percentage of steers, mobility score 2, Lairage: 11.8%
  Percentage of steers, mobility score >2, Lairage: 8.0%
  Percentage of steers, mobility score 1, Pen: 85.0%
  Percentage of steers, mobility score 2, Pen: 11.4%
  Percentage of steers, mobility score >2, Pen: 3.6%
  Percentage of steers, mobility score 1, Loadout: 76.6%
  Percentage of steers, mobility score 2, Loadout: 21.4%
  Percentage of steers, mobility score >2, Loadout: 2.0%
Beef feedlot cattle; 3.5 mg·kg^−1 DM
  Percentage of steers, mobility score 1, Lairage: 81.7%
  Percentage of steers, mobility score 2, Lairage: 12.1%
  Percentage of steers, mobility score >2, Lairage: 6.2%
  Percentage of steers, mobility score 1, Pen: 85.9%
  Percentage of steers, mobility score 2, Pen: 10.4%
  Percentage of steers, mobility score >2, Pen: 3.7%
  Percentage of steers, mobility score 1, Loadout: 73.7%
  Percentage of steers, mobility score 2, Loadout: 23.1%
  Percentage of steers, mobility score >2, Loadout: 3.2%
Beef feedlot cattle; 5.5 mg·kg^−1 DM
  Percentage of steers, mobility score 1, Lairage: 80.9%
  Percentage of steers, mobility score 2, Lairage: 12.6%
  Percentage of steers, mobility score >2, Lairage: 6.5%
  Percentage of steers, mobility score 1, Pen: 86.9%
  Percentage of steers, mobility score 2, Pen: 8.3%
  Percentage of steers, mobility score >2, Pen: 4.8%
  Percentage of steers, mobility score 1, Loadout: 71.3%
  Percentage of steers, mobility score 2, Loadout: 25.0%
  Percentage of steers, mobility score >2, Loadout: 3.7%
Beef feedlot cattle; 56 d, all treatments, at all assessment times
  Cattle scoring a mobility score of 1 or 2: ≥ 92%
Beef feedlot cattle; 56 d, any assessment time point prior to harvest
  Animals receiving abnormal mobility scores of >2, across treatments: not different across treatments
Beef feedlot cattle; 56 d, any assessment time, Ptrt≥0.17
  Percent of cattle scored 1 (mobility), differences among treatments: No differences
Beef feedlot cattle; 56 d, at any time, Ptrt≥0.170
  Percent of cattle receiving mobility scores of 1 or 2, treatment differences: No treatment differences
